Laboratory results from US11420973B2, “Amide substituted indole compounds useful as TLR inhibitors” (BRISTOL-MYERS SQUIBB COMPANY, priority 2017, dated 2022).
Where a name gives a salt, the structure may show the parent alone. Read-outs that look alike come from different tables or passages of the source.

Key:
human TLR7 = human TLR7 (Homo sapiens (Human), UniProt Q9NYK1); assay: TLR7 inhibition reporter assay (HEK-Blue SEAP reporter, gardiquimod stimulation); assay type: cell-based; details: HEK-Blue cells overexpressing human TLR7, gardiquimod 7.5 μM
Sequence of human TLR7 (Q9NYK1 27-1049): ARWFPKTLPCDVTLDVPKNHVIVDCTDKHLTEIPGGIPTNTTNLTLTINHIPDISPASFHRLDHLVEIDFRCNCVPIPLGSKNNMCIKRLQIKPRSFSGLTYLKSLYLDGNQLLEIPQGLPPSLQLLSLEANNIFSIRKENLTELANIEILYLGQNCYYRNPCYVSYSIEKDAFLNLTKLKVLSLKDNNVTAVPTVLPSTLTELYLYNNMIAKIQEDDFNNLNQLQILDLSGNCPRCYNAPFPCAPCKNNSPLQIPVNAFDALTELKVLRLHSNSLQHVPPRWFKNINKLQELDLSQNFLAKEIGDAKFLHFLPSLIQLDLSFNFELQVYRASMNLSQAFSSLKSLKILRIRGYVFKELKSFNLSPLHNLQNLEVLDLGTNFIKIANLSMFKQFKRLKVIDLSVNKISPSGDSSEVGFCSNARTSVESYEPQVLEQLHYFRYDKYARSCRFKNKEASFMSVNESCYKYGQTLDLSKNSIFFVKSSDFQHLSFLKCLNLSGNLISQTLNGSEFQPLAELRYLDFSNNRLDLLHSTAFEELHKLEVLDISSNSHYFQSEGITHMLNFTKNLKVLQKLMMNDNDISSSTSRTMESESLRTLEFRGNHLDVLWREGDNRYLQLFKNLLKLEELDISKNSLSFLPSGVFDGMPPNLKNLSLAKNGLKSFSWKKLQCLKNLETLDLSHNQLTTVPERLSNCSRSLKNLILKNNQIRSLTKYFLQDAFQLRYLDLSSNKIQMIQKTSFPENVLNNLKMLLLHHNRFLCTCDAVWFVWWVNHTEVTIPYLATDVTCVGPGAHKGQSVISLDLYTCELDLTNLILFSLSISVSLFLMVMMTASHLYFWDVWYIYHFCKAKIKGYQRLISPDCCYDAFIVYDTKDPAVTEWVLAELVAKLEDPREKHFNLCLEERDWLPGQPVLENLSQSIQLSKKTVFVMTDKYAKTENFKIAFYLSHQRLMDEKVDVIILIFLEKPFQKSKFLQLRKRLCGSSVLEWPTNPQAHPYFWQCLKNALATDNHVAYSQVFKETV

human TLR9 = human TLR9 (Homo sapiens (Human), UniProt Q9NR96); assay: TLR9 inhibition reporter assay (HEK-Blue SEAP reporter, ODN2006 stimulation);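 further: SEAP reporter under IFN-β minimal promoter with five NF-κB and AP-1 sites, 22 h incubation, compounds 0.05 nM–50 µM, inhibition relative to agonist plus DMSO versus known inhibitor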
Sequence of human TLR9 (Q9NR96 26-1032): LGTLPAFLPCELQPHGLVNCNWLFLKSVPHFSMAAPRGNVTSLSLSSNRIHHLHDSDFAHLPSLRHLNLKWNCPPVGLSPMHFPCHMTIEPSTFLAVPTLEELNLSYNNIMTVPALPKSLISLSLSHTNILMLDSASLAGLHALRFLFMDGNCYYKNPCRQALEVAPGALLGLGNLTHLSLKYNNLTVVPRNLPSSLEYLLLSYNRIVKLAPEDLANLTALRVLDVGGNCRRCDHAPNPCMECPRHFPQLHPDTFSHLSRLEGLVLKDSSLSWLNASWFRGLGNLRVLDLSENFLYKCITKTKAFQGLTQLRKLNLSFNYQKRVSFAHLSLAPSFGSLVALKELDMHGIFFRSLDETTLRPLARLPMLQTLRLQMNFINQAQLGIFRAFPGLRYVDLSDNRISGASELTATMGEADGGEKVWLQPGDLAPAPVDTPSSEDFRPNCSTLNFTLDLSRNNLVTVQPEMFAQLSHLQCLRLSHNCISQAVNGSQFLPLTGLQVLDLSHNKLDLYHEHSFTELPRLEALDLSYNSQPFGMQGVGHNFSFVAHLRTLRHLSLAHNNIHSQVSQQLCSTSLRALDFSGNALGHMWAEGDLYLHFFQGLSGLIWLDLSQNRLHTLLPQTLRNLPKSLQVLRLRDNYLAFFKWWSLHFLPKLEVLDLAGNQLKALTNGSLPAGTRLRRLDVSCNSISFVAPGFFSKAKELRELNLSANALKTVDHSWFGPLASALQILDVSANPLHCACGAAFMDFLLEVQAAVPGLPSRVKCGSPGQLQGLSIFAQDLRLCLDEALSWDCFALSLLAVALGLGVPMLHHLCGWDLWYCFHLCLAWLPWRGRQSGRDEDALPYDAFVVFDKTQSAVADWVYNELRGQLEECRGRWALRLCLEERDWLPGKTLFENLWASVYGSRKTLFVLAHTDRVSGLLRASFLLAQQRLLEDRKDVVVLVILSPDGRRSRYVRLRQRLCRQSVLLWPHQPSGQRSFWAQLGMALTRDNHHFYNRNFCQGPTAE

human TLR8 = human TLR8 (Homo sapiens (Human), UniProt Q9NR97); assay: TLR8 inhibition reporter assay (HEK-Blue SEAP reporter, R848 stimulation);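 further: SEAP driven by IFN-β minimal promoter with NF-κB and AP-1 sites, 22 h incubation, compounds 0.05 nM–50 µM, inhibition scaled between agonist plus DMSO and reference inhibitor wells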
Sequence of human TLR8 (Q9NR97 27-1041): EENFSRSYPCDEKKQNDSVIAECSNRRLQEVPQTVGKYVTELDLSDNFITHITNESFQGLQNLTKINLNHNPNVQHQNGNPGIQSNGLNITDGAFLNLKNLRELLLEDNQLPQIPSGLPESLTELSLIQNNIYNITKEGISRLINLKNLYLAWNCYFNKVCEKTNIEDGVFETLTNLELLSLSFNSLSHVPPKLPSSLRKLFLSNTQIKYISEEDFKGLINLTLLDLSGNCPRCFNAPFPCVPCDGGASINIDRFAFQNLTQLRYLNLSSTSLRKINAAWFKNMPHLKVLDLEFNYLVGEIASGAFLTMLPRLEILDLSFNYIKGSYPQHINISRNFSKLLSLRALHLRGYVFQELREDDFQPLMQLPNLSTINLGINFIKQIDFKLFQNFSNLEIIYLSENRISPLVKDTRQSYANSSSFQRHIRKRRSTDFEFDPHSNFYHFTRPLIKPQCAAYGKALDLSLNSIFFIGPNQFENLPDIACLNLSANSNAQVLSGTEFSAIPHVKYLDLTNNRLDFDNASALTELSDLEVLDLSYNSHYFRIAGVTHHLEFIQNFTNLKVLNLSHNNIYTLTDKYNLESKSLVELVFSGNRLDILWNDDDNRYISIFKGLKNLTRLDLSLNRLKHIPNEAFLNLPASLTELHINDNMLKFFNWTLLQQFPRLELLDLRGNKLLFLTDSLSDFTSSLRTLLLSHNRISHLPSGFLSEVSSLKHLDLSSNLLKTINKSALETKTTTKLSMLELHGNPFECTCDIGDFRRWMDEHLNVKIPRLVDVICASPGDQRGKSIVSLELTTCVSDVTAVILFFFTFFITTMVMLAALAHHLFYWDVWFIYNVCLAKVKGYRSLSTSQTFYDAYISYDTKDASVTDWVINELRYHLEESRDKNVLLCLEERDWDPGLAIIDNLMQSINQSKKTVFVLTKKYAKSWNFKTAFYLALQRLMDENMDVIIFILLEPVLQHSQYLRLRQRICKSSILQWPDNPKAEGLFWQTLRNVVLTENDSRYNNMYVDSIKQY

[1] = read-out: TLR9 IC50, HEK-Blue cells overexpressing human TLR9, ODN2006 5 nM, SEAP reporter
[2] = read-out: TLR8 IC50, HEK-Blue cells overexpressing human TLR8, R848 15.9 μM, SEAP reporter

SMILES | IC50 (human TLR7) [µM] | IC50 (human TLR9; [1]) [µM] | IC50 (human TLR8; [2]) [µM] | IC50 (human TLR9) [µM] | IC50 (human TLR8) [µM]
Cc1cc(-c2[nH]c3ccc(C(=O)N4CCNCC4)cc3c2C(C)C)cc(C)n1 [Example 108, (2-(2,6-dimethylpyridin-4-yl)-3-isopropyl-1H-indol-5-yl)(piperazin-1-yl)methanone] | 0.0073 | 0.247 | 0.0015 |  | 
Cc1cc(-c2[nH]c3ccc(C(C)C(=O)NC4CN5CCC4CC5)cc3c2C(C)C)ccn1 (stereo not drawn) [Example 191, 2-(3-isopropyl-2-(2-methylpyridin-4-yl)-1H-indol-5-yl)-N-(quinuclidin-3-yl)propanamide] | 0.175 | 1.29 | 0.209 |  | 
CCc1c(-c2ccc(OC)c(OC)c2)[nH]c2ccc(C(=O)N3CCCC(C)(C)C3)cc12 [Example 32, (2-(3,4-dimethoxyphenyl)-3-ethyl-1H-indol-5-yl)(3,3-dimethylpiperidin-1-yl)methanone] | 1.98 | 5.1 | 0.545 |  | 
CCc1c(-c2ccc(OC)c(OC)c2)[nH]c2ccc(C(=O)NCCCN3CCN(C)CC3)cc12 [Example 55, 2-(3,4-dimethoxyphenyl)-3-ethyl-N-(3-(4-methylpiperazin-1-yl)propyl)-1H-indole-5-carboxamide] | 0.954 | 2.09 | 0.016 |  | 
Cc1cc(-c2[nH]c3ccc(C(=O)N4CC5CNCC5C4)cc3c2C(C)C)cc(C)n1 (stereo not drawn) [Example 107, (2-(2,6-dimethylpyridin-4-yl)-3-isopropyl-1H-indol-5-yl)(hexahydropyrrolo[3,4-c]pyrrol-2(1H)-yl)methanone, 2 HCl] | 0.073 |  |  | 0.264 | 0.058
CCc1c(-c2ccc(OC)c(OC)c2)[nH]c2ccc(C(=O)N3CCN(CCOC)CC3)cc12 [Example 41, (2-(3,4-dimethoxyphenyl)-3-ethyl-1H-indol-5-yl)(4-(2-methoxyethyl)piperazin-1-yl)methanone] | 1.14 | 26.7 | 0.012 |  | 
CCc1c(-c2ccc(OC)c(OC)c2)[nH]c2ccc(C(=O)N3CCC[C@H]3COC)cc12 [Example 27, (S)-(2-(3,4-dimethoxyphenyl)-3-ethyl-1H-indol-5-yl)(2-(methoxymethyl)pyrrolidin-1-yl)methanone] | 1.74 | > 50 | 0.782 |  | 
CCc1c(-c2ccc(OC)c(OC)c2)[nH]c2ccc(C(=O)NCCCN3CCCCC3)cc12 [Example 53, 2-(3,4-dimethoxyphenyl)-3-ethyl-N-(3-(piperidin-1-yl)propyl)-1H-indole-5-carboxamide] | 0.258 | 2 | 0.0081 |  | 
CCc1c(-c2ccc(OC)c(OC)c2)[nH]c2ccc(C(=O)N3CCCN(c4ccccn4)CC3)cc12 [Example 65, (2-(3,4-dimethoxyphenyl)-3-ethyl-1H-indol-5-yl)(4-(pyridin-2-yl)-1,4-diazepan-1-yl)methanone] | 1.21 | 7.25 | 1.63 |  | 
COc1ccc(-c2[nH]c3ccc(C(=O)N4CC5CN(C(C)C)CC5C4)cc3c2C(C)C)cc1OC (stereo not drawn) [Example 14, (2-(3,4-dimethoxyphenyl)-3-isopropyl-1H-indol-5-yl)(5-isopropylhexahydropyrrolo[3,4-c]pyrrol-2(1H)-yl)methanone] | 0.04 | 1.19 | 0.026 |  | 
COc1cc(-c2[nH]c3ccc(C(=O)N4CCCN(C)CC4)cc3c2C(C)C)cn2ncnc12 [Example 128, (3-isopropyl-2-(8-methoxy-[1,2,4]triazolo[1,5-a]pyridin-6-yl)-1H-indol-5-yl)(4-methyl-1,4-diazepan-1-yl)methanone] | 0.0038 | 1.4 | 0.0026 |  | 
CNCC(=O)N1CC2CN(C(=O)c3ccc4[nH]c(-c5ccc(OC)c(OC)c5)c(C(C)C)c4c3)CC2C1 (stereo not drawn) [Example 16, 1-(5-(2-(3,4-dimethoxyphenyl)-3-isopropyl-1H-indole-5-carbonyl)hexahydropyrrolo[3,4-c]pyrrol-2(1H)-yl)-2-(methylamino)ethanone] | 0.28 | 3.94 | 0.194 |  | 
CCN(CC)C(=O)C1CCCN(CC(=O)N2CC3CN(C(=O)c4ccc5[nH]c(-c6ccc(OC)c(OC)c6)c(C(C)C)c5c4)CC3C2)C1 (racemic) [Example 8, 1-(2-{5-[2-(3,4-dimethoxyphenyl)-3-(propan-2-yl)-1H-indole-5-carbonyl]-octahydropyrrolo[3,4-c]pyrrol-2-yl}-2-oxoethyl)-N,N-diethylpiperidine-3-carboxamide] | 0.129 | 7.52 | 0.126 |  | 
CCc1c(-c2ccc(OC)c(OC)c2)[nH]c2ccc(C(=O)NCCCN(C)C)cc12 [Example 75, 2-(3,4-dimethoxyphenyl)-N-(3-(dimethylamino)propyl)-3-ethyl-1H-indole-5-carboxamide] | 0.124 | 0.25 | 0.0076 |  | 
Cc1cc(-c2[nH]c3ccc(C(C)C(=O)N(C)C4CN5CCC4CC5)cc3c2C(C)C)ccn1 (stereo not drawn) [Example 211, 2-(3-isopropyl-2-(2-methylpyridin-4-yl)-1H-indol-5-yl)-N-methyl-N-(quinuclidin-3-yl)propanamide] | 0.05 | 0.472 | 0.051 |  | 

Second part, the molecule after the results:

IC50 (human TLR7) [µM] | IC50 (human TLR9; [1]) [µM] | IC50 (human TLR8; [2]) [µM] | IC50 (human TLR9) [µM] | IC50 (human TLR8) [µM] | SMILES
0.458 | 2.62 | 0.387 |  |  | Cc1cc(-c2[nH]c3ccc(C(C)C(=O)N[C@@H]4CCNC4)cc3c2C(C)C)ccn1 (stereo partly drawn) [Example 188, 2-(3-isopropyl-2-(2-methylpyridin-4-yl)-1H-indol-5-yl)-N—((R)-pyrrolidin-3-yl)propanamide]
0.172 | 0.396 | 0.156 |  |  | Cc1cc(-c2[nH]c3ccc(C(C)C(=O)N(C)C4CCNCC4)cc3c2C(C)C)ccn1 (stereo not drawn) [Example 207, 2-(3-isopropyl-2-(2-methylpyridin-4-yl)-1H-indol-5-yl)-N-methyl-N-(piperidin-4-yl)propanamide]
0.147 | 1.58 | 0.0035 |  |  | Cc1cc(-c2[nH]c3ccc(C(=O)N4CC5CN(C)CC5C4)cc3c2C(C)C)ccn1 (stereo not drawn) [Example 115, (3-isopropyl-2-(2-methylpyridin-4-yl)-1H-indol-5-yl)(5-methylhexahydropyrrolo[3,4-c]pyrrol-2(1H)-yl)methanone]
0.016 | 0.899 | 0.0071 |  |  | Cc1cc(-c2[nH]c3ccc(C(C)(C)C(=O)N[C@@H]4CCCC[C@H]4N)cc3c2C(C)C)ccn1 [Example 169, N—((R,2R)-2-aminocyclohexyl)-2-(3-isopropyl-2-(2-methylpyridin-4-yl)-1H-indol-5-yl)-2-methylpropanamide]
0.091 | 0.533 | 0.139 |  |  | Cc1cc(-c2[nH]c3ccc(C(C)(C)C(=O)N4CCCC5(CCNC5)C4)cc3c2C(C)C)ccn1 (stereo not drawn) [Example 184, 2-(3-isopropyl-2-(2-methylpyridin-4-yl)-1H-indol-5-yl)-2-methyl-1-(2,7-diazaspiro[4.5]decan-7-yl)propan-1-one]
0.031 | 2.64 | 0.046 |  |  | Cc1cc(-c2[nH]c3ccc(C(C)(C)C(=O)N4CCCC5(CCCCC5N)C4)cc3c2C(C)C)ccn1 (stereo not drawn) [Example 152, 1-(7-amino-2-azaspiro[5.5]undecan-2-yl)-2-(3-isopropyl-2-(2-methylpyridin-4-yl)-1H-indol-5-yl)-2-methylpropan-1-one]
0.335 |  |  | 0.334 | 0.036 | Cc1cc(-c2[nH]c3ccc(C(=O)N4CC5CNCC5C4)cc3c2C(C)C)ccn1 (stereo not drawn) [Example 112, (hexahydropyrrolo[3,4-c]pyrrol-2(1H)-yl)(3-isopropyl-2-(2-methylpyridin-4-yl)-1H-indol-5-yl)methanone, HCl]
0.072 | 7.09 | 0.175 |  |  | Cc1cc(-c2[nH]c3ccc(C(C)(C)C(=O)N4CCC(CN)C4)cc3c2C(C)C)ccn1 (stereo not drawn) [Example 151, 1-(3-(aminomethyl)pyrrolidin-1-yl)-2-(3-isopropyl-2-(2-methylpyridin-4-yl)-1H-indol-5-yl)-2-methylpropan-1-one]
0.052 | 1.17 | 0.064 |  |  | Cc1cc(-c2[nH]c3ccc(C(C)(C)C(=O)N[C@H]4CCNC4)cc3c2C(C)C)ccn1 [Example 138, (S)-2-(3-isopropyl-2-(2-methylpyridin-4-yl)-1H-indol-5-yl)-2-methyl-N-(pyrrolidin-3-yl)propanamide]
0.657 | > 50 | 0.979 |  |  | Cc1cc(-c2[nH]c3ccc(C(C)C(=O)NCC(C)(C)O)cc3c2C(C)C)ccn1 (stereo not drawn) [Example 131, N-(2-hydroxy-2-methylpropyl)-2-(3-isopropyl-2-(2-methylpyridin-4-yl)-1H-indol-5-yl)propanamide]
0.223 | 1.35 | 0.496 |  |  | Cc1cc(-c2[nH]c3ccc(C(C)C(=O)NC4CCC5CNCC54)cc3c2C(C)C)ccn1 (stereo not drawn) [Example 187, 2-(3-isopropyl-2-(2-methylpyridin-4-yl)-1H-indol-5-yl)-N-(octahydrocyclopenta[c]pyrrol-4-yl)propanamide]
0.443 | 1.21 | 0.303 |  |  | Cc1cc(-c2[nH]c3ccc(C(C)C(=O)N4CCC(CN)C4)cc3c2C(C)C)ccn1 (stereo not drawn) [Example 199, 1-(3-(aminomethyl)pyrrolidin-1-yl)-2-(3-isopropyl-2-(2-methylpyridin-4-yl)-1H-indol-5-yl)propan-1-one]
4.05 | 22.7 | 0.165 |  |  | CNC(=O)CN1CC2CN(C(=O)c3ccc4[nH]c(-c5ccnc(C)c5)c(C(C)C)c4c3)CC2C1 (stereo not drawn) [Example 118, 2-(5-(3-isopropyl-2-(2-methylpyridin-4-yl)-1H-indole-5-carbonyl)hexahydropyrrolo[3,4-c]pyrrol-2(1H)-yl)-N-methylacetamide]
